Numbers after ± are expanded uncertainties.
Test: xn = mol fraction of the nth substance listed
Settings: 101 kPa, Liquid, Capillary tube (Ostwald / Ubbelohde) method

Cc1ccc(C)cc1 [1,4-dimethylbenzene] + CO
viscosity [mPa·s]
Settings | x2 = 0 | x2 = 0.1001 | x2 = 0.1998 | x2 = 0.3015 | x2 = 0.4005 | x2 = 0.5 | x2 = 0.5999 | x2 = 0.7005 | x2 = 0.8 | x2 = 0.8984
303.15 K | 0.574 ± 0.017 | 0.559 ± 0.017 | 0.556 ± 0.017 | 0.563 ± 0.017 | 0.567 ± 0.017 | 0.573 ± 0.017 | 0.576 ± 0.017 | 0.577 ± 0.017 | 0.568 ± 0.017 | 0.549 ± 0.017
308.15 K | 0.542 ± 0.017 | 0.527 ± 0.017 | 0.524 ± 0.017 | 0.527 ± 0.017 | 0.529 ± 0.017 | 0.533 ± 0.017 | 0.536 ± 0.017 | 0.536 ± 0.017 | 0.529 ± 0.017 | 0.512 ± 0.017
313.15 K | 0.514 ± 0.017 | 0.498 ± 0.017 | 0.494 ± 0.017 | 0.496 ± 0.017 | 0.498 ± 0.017 | 0.501 ± 0.017 | 0.504 ± 0.017 | 0.502 ± 0.017 | 0.495 ± 0.017 | 0.479 ± 0.017
318.15 K | 0.486 ± 0.017 | 0.469 ± 0.017 | 0.465 ± 0.017 | 0.466 ± 0.017 | 0.467 ± 0.017 | 0.469 ± 0.017 | 0.469 ± 0.017 | 0.469 ± 0.017 | 0.462 ± 0.017 | 0.447 ± 0.017
323.15 K | 0.461 ± 0.017 | 0.445 ± 0.017 | 0.439 ± 0.017 | 0.44 ± 0.017 | 0.44 ± 0.017 | 0.443 ± 0.017 | 0.443 ± 0.017 | 0.441 ± 0.017 | 0.434 ± 0.017 | 0.42 ± 0.017

CO [methanol] + Cc1cccc(C)c1
x1 = 1
Settings | viscosity [mPa·s]
303.15 K | 0.513 ± 0.017
308.15 K | 0.48 ± 0.017
313.15 K | 0.45 ± 0.017
318.15 K | 0.422 ± 0.017
323.15 K | 0.397 ± 0.017

Cc1ccccc1C [1,2-dimethylbenzene] + CO
viscosity [mPa·s]
Settings | x2 = 0 | x2 = 0.1007 | x2 = 0.2013 | x2 = 0.2961 | x2 = 0.403 | x2 = 0.5003 | x2 = 0.601 | x2 = 0.7025 | x2 = 0.8006 | x2 = 0.9013
303.15 K | 0.71 ± 0.018 | 0.684 ± 0.017 | 0.674 ± 0.017 | 0.671 ± 0.017 | 0.666 ± 0.017 | 0.663 ± 0.017 | 0.655 ± 0.017 | 0.638 ± 0.017 | 0.61 ± 0.017 | 0.567 ± 0.017
308.15 K | 0.666 ± 0.017 | 0.641 ± 0.017 | 0.631 ± 0.017 | 0.626 ± 0.017 | 0.621 ± 0.017 | 0.617 ± 0.017 | 0.607 ± 0.017 | 0.595 ± 0.017 | 0.567 ± 0.017 | 0.53 ± 0.017
313.15 K | 0.628 ± 0.017 | 0.603 ± 0.017 | 0.591 ± 0.017 | 0.587 ± 0.017 | 0.582 ± 0.017 | 0.577 ± 0.017 | 0.569 ± 0.017 | 0.554 ± 0.017 | 0.531 ± 0.017 | 0.495 ± 0.017
318.15 K | 0.591 ± 0.017 | 0.566 ± 0.017 | 0.555 ± 0.017 | 0.55 ± 0.017 | 0.543 ± 0.017 | 0.538 ± 0.017 | 0.531 ± 0.017 | 0.516 ± 0.017 | 0.494 ± 0.017 | 0.462 ± 0.017
323.15 K | 0.56 ± 0.017 | 0.535 ± 0.017 | 0.523 ± 0.017 | 0.517 ± 0.017 | 0.511 ± 0.017 | 0.506 ± 0.017 | 0.496 ± 0.017 | 0.484 ± 0.017 | 0.462 ± 0.017 | 0.434 ± 0.017
